Assay results taken from article PMC10176470, “Engaging a Non-catalytic Cysteine Residue Drives Potent and Selective Inhibition of Caspase-6” (Journal of the American Chemical Society, 2023).

Tests used:
Type in all cases: cell-based
[1] = target: proteins of HEK293T cells transiently overexpressing caspase-6 (Homo sapiens, UniProt P39023); conditions: exp_ref Probe; protein RPL3 (P39023); analysis C6
[2] = target: proteins of HEK293T cells transiently overexpressing caspase-6 (Homo sapiens, UniProt P25705); conditions: exp_ref Probe; protein ATP5A1 (P25705); analysis C6
Sequence of proteins of HEK293T cells transiently overexpressing caspase-6 (Homo sapiens, UniProt P25705) (P25705 44-553): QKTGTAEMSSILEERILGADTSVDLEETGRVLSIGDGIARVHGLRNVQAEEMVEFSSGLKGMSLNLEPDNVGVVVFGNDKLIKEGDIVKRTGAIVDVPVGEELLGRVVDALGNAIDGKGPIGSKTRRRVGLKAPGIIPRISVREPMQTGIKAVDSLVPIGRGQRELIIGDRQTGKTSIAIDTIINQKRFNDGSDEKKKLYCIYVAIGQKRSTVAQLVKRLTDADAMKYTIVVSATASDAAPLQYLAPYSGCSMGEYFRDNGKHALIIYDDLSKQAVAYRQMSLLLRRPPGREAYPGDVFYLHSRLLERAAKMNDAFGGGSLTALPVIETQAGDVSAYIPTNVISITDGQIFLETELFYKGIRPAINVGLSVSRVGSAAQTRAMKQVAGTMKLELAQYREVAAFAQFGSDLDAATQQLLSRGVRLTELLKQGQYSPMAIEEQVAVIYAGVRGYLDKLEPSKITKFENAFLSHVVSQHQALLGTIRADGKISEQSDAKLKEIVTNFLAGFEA

[3] = target: proteins of HEK293T cells transiently overexpressing caspase-6 (Homo sapiens, UniProt P22626); conditions: exp_ref Probe; protein HNRNPA2B1 (P22626); analysis C6
Sequence of proteins of HEK293T cells transiently overexpressing caspase-6 (Homo sapiens, UniProt P22626) (P22626 whole entry): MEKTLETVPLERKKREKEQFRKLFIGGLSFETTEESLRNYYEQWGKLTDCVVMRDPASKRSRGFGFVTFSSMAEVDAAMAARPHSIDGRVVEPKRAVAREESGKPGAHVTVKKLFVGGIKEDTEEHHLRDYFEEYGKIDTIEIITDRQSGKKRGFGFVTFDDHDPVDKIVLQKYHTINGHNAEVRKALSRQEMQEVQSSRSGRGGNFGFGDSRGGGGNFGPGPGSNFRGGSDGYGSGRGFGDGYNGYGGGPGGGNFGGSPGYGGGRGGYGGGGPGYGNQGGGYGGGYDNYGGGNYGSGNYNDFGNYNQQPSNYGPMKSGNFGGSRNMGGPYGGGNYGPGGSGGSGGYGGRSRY

[4] = target: proteins of HEK293T cells transiently overexpressing caspase-6 (Homo sapiens, UniProt P13797); conditions: exp_ref Probe; protein PLS3 (P13797); analysis C6
[5] = target: proteins of HEK293T cells transiently overexpressing caspase-6 (Homo sapiens, UniProt P46060); conditions: exp_ref Probe; protein RANGAP1 (P46060); analysis C6
Sequence of proteins of HEK293T cells transiently overexpressing caspase-6 (Homo sapiens, UniProt P46060) (P46060 whole entry): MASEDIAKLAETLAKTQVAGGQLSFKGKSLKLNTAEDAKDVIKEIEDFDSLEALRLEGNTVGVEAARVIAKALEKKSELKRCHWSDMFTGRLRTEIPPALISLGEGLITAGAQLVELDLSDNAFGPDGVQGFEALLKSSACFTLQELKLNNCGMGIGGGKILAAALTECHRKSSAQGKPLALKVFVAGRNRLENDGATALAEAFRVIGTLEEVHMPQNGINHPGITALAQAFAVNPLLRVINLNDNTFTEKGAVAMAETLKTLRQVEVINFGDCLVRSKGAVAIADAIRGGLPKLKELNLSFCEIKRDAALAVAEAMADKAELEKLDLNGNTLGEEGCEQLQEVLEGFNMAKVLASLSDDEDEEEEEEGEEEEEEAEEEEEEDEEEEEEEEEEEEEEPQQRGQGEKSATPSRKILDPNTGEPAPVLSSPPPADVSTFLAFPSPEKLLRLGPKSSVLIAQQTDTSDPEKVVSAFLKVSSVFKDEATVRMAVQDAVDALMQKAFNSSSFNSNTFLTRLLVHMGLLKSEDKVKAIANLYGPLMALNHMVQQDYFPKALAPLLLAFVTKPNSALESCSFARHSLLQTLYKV

[6] = target: proteins of HEK293T cells transiently overexpressing caspase-6 (Homo sapiens, UniProt P18124); conditions: Probe; protein RPL7 P18124
[7] = target: proteins of HEK293T cells transiently overexpressing caspase-6 (Homo sapiens, UniProt P61313)
[8] = target: proteins of HEK293T cells transiently overexpressing caspase-6 (Homo sapiens, UniProt P63104); conditions: exp_ref Probe; protein YWHAZ (P63104); analysis C6
Sequence of proteins of HEK293T cells transiently overexpressing caspase-6 (Homo sapiens, UniProt P63104) (P63104 whole entry): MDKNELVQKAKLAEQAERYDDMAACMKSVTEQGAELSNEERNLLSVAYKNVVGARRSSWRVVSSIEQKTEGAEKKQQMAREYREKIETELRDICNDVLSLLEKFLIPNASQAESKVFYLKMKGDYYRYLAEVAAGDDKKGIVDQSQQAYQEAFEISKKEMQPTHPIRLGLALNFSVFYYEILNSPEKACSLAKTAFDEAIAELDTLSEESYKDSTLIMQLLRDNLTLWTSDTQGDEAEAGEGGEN

[9] = target: proteins of HEK293T cells transiently overexpressing caspase-6 (Homo sapiens, UniProt Q9NUU7); conditions: protein DDX19A (Q9NUU7); exp_ref Probe; analysis C6
[10] = target: proteins of HEK293T cells transiently overexpressing caspase-6 (Homo sapiens, UniProt P60174); conditions: exp_ref Probe; protein TPI1 (P60174); analysis C6
Sequence of proteins of HEK293T cells transiently overexpressing caspase-6 (Homo sapiens, UniProt P60174) (P60174 whole entry): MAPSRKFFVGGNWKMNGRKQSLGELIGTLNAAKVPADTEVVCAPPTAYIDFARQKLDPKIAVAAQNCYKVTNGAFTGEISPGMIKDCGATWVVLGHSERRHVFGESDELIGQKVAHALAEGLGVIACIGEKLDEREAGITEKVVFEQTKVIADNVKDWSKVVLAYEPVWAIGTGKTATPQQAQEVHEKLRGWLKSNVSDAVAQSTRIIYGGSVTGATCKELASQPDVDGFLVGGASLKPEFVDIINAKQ

[11] = target: proteins of HEK293T cells transiently overexpressing caspase-6 (Homo sapiens, UniProt P31946); conditions: exp_ref Probe; protein YWHAB (P31946); analysis C6
Sequence of proteins of HEK293T cells transiently overexpressing caspase-6 (Homo sapiens, UniProt P31946) (P31946 whole entry): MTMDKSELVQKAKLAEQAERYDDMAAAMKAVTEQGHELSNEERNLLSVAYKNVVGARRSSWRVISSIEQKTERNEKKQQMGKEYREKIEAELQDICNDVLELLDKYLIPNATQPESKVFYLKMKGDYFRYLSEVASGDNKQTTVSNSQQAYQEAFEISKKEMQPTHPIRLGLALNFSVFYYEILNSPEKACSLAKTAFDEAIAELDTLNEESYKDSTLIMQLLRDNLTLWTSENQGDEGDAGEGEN

[12] = target: proteins of HEK293T cells transiently overexpressing caspase-6 (Homo sapiens, UniProt O75533); conditions: exp_ref Probe; protein SF3B1 (O75533); analysis C6
Sequence of proteins of HEK293T cells transiently overexpressing caspase-6 (Homo sapiens, UniProt O75533) (O75533 whole entry): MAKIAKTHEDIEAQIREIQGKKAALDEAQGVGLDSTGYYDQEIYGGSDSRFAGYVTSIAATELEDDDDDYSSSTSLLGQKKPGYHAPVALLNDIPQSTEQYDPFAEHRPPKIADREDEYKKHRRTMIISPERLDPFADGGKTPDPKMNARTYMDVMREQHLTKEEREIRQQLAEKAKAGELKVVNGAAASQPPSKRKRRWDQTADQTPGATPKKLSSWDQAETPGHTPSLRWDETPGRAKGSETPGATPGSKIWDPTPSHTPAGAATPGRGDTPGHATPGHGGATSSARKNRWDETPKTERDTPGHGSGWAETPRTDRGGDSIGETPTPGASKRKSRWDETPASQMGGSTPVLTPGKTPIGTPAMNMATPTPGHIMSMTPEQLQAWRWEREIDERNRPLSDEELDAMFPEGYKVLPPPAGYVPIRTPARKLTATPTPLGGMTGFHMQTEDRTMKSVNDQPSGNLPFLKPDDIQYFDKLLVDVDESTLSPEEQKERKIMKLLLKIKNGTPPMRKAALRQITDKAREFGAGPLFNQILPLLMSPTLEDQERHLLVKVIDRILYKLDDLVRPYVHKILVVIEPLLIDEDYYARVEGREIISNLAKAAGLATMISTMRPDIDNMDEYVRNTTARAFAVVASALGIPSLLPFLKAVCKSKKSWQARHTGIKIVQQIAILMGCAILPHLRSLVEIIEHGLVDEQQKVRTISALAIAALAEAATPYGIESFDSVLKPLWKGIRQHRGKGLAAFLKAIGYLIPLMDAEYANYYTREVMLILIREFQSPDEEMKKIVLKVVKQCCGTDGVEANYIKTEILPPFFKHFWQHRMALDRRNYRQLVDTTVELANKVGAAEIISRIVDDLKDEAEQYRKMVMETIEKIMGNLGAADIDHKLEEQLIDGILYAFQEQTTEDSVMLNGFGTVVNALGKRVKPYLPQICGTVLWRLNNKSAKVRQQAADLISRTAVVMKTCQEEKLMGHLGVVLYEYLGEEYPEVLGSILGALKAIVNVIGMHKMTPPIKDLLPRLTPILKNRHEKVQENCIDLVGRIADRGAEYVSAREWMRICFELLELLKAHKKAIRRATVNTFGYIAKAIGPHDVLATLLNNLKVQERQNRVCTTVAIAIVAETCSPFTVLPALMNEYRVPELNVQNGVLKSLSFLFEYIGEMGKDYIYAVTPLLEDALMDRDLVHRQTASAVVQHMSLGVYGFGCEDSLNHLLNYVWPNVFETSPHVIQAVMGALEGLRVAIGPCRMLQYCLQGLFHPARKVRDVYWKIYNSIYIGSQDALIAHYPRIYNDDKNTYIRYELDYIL

[13] = target: proteins of HEK293T cells transiently overexpressing caspase-6 (Homo sapiens, UniProt P49321); conditions: exp_ref Probe; protein NASP (P49321); analysis C6
Sequence of proteins of HEK293T cells transiently overexpressing caspase-6 (Homo sapiens, UniProt P49321) (P49321 whole entry): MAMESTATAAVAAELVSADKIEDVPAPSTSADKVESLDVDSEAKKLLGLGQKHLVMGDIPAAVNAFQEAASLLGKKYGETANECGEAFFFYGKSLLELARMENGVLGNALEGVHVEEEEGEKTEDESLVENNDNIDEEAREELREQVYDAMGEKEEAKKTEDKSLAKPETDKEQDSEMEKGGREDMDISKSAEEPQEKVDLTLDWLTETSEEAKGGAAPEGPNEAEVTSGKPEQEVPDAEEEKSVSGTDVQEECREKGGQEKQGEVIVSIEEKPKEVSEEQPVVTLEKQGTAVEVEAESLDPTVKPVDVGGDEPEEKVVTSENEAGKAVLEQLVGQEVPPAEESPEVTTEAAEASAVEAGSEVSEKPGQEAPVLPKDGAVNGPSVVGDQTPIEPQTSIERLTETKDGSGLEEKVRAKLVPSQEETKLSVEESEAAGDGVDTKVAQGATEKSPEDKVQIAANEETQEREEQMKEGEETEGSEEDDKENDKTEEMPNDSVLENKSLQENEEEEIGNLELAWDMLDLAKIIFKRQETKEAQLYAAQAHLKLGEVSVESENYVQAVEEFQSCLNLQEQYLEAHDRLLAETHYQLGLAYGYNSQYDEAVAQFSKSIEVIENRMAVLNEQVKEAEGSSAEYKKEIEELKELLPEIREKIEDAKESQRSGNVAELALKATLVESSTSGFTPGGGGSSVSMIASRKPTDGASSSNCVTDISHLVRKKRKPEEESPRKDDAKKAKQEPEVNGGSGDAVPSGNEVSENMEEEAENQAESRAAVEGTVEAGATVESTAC

[14] = target: proteins of HEK293T cells transiently overexpressing caspase-6 (Homo sapiens, UniProt P62917); conditions: Probe; protein RPL8 P62917
[15] = target: proteins of HEK293T cells transiently overexpressing caspase-6 (Homo sapiens, UniProt P11021); conditions: protein HSPA5 (P11021)
Sequence of proteins of HEK293T cells transiently overexpressing caspase-6 (Homo sapiens, UniProt P11021) (P11021 19-654): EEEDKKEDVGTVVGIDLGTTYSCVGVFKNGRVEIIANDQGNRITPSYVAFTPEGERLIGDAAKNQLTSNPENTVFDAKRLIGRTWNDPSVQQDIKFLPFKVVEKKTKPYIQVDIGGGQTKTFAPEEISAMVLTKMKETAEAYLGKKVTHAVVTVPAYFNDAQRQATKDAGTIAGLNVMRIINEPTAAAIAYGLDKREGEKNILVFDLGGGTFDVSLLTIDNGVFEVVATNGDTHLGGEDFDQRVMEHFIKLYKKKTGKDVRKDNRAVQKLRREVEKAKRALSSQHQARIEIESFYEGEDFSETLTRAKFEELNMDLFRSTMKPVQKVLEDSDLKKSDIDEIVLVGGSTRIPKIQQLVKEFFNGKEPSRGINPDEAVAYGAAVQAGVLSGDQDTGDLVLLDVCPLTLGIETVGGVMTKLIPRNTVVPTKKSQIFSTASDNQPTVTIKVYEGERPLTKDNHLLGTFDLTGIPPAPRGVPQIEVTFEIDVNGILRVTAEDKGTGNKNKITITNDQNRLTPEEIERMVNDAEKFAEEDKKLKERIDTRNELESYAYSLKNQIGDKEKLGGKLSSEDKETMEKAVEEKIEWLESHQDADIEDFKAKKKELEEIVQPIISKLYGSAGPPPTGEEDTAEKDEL

[16] = target: proteins of HEK293T cells transiently overexpressing caspase-6 (Homo sapiens, UniProt Q9NTK5); conditions: protein OLA1 (Q9NTK5), analysis C6
[17] = target: T1, proteins of HEK293T cells transiently overexpressing caspase-6 (Homo sapiens, UniProt P26583)
T1 sequence (P26583 1-209): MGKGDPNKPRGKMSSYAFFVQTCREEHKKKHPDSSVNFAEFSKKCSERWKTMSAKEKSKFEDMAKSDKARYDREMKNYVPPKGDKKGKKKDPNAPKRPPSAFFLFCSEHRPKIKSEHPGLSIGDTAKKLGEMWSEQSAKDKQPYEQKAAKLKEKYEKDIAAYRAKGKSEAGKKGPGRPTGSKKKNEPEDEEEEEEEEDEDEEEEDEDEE

In the case of C#CCOc1ccc([C@@H]2C[C@@H](C(=O)Nc3ccc(OC(F)(F)F)cc3)CN(S(=O)(=O)C=C)C2)cc1 (relative stereo) [13-t], the enrich.exp.med [1] is reported as -0.06221, the enrich.exp.med [2] is reported as -0.052 and the enrich.exp.med [3] is reported as -0.1215. The enrich.exp.med [4] was 0.7997, the enrich.exp.med [5] was 0.1212 and the enrich.exp.med [6] was -0.45. For the same compound, the enrich.exp.med ([7]; Probe, protein RPL15 P61313) was -0.9576, the enrich.exp.med.lin ([7]; protein RPL15 (P61313)) was 0.5149 and the enrich.exp.med.log2 ([7]; protein RPL15 (P61313)) was -0.9576. The enrich.exp.med [8] was 0.8069, the enrich.exp.med [9] was 1.908 and the enrich.exp.med [10] was 0.1365. The enrich.exp.med [11] was -0.2081, the enrich.exp.med [12] was 0.3273 and the enrich.exp.med [13] was 0.1581. For the same compound, the enrich.exp.med [14] was -0.8445, the enrich.exp.med ([15]; exp_ref Probe, analysis C6) was 0.9475 and the enrich.exp.med.lin [15] was 1.929. It also gave an enrich.exp.med.log2 [15] of 0.9475, an enrich.exp.med.lin ([16]; Expt Probe) of 6.528 and an enrich.exp.med.log2 ([16]; Expt Probe) of 2.707. The enrich.exp.med ([16]; exp_ref Probe) was 2.707, the enrich.exp.med ([17]; Probe, protein HMGB2 P26583) was -1.024 and the enrich.exp.med.lin ([17]; protein HMGB2 (P26583)) was 0.4916. For the same compound, the enrich.exp.med.log2 ([17]; protein HMGB2 (P26583)) was -1.024.
